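Where inhibition never reached the appropriate level, the endpoint shown equals the highest concentration tested. Otherwise, values were interpolated linearly from a five-concentration, 48-hour dose response in 96-well plates. GI50 marks 50% less growth. At the TGI there is no net growth.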
Legend:
Assay in all cases: NCI-60 cell line screen, 48 h
MDA-MB-435 = tested on: MDA-MB-435
HL-60(TB) leukemia = tested on: HL-60(TB) leukemia
MDA-MB-231 breast = tested on: MDA-MB-231 breast
A549 NSCLC = tested on: A549 NSCLC
DU-145 prostate = tested on: DU-145 prostate
U251 CNS = tested on: U251 CNS
SNB-75 CNS = tested on: SNB-75 CNS
HOP-62 NSCLC = tested on: HOP-62 NSCLC
IGROV1 ovarian = tested on: IGROV1 ovarian
NCI-H226 lung = tested on: NCI-H226 lung
UACC-257 melanoma = tested on: UACC-257 melanoma
NCI/ADR-RES ovarian = tested on: NCI/ADR-RES ovarian
T-47D breast = tested on: T-47D breast
MCF7 breast = tested on: MCF7 breast
K-562 leukemia = tested on: K-562 leukemia
SK-MEL-5 melanoma = tested on: SK-MEL-5 melanoma
A498 renal = tested on: A498 renal
SK-OV-3 ovarian = tested on: SK-OV-3 ovarian
HT29 colon = tested on: HT29 colon
LOX IMVI melanoma = tested on: LOX IMVI melanoma
SF-295 CNS = tested on: SF-295 CNS
NCI-H23 lung = tested on: NCI-H23 lung
MOLT-4 leukemia = tested on: MOLT-4 leukemia
CCRF-CEM leukemia = tested on: CCRF-CEM leukemia
786-0 renal = tested on: 786-0 renal
UO-31 renal = tested on: UO-31 renal
SN12C renal = tested on: SN12C renal
HCT-116 colon = tested on: HCT-116 colon
KM12 colon = tested on: KM12 colon
HCC-2998 colon = tested on: HCC-2998 colon
RPMI-8226 leukemia = tested on: RPMI-8226 leukemia
SF-539 CNS = tested on: SF-539 CNS
SR leukemia = tested on: SR leukemia
NCI-H460 lung = tested on: NCI-H460 lung
OVCAR-8 ovarian = tested on: OVCAR-8 ovarian
COLO 205 colon = tested on: COLO 205 colon
UACC-62 melanoma = tested on: UACC-62 melanoma
PC-3 prostate = tested on: PC-3 prostate
TK-10 renal = tested on: TK-10 renal
OVCAR-5 ovarian = tested on: OVCAR-5 ovarian
NCI-H522 lung = tested on: NCI-H522 lung
BT-549 breast = tested on: BT-549 breast
HS 578T breast = tested on: HS 578T breast
SNB-19 CNS = tested on: SNB-19 CNS
MALME-3M melanoma = tested on: MALME-3M melanoma
EKVX NSCLC = tested on: EKVX NSCLC
SK-MEL-28 melanoma = tested on: SK-MEL-28 melanoma
SF-268 CNS = tested on: SF-268 CNS
RXF 393 renal = tested on: RXF 393 renal
M14 melanoma = tested on: M14 melanoma
SW-620 colon = tested on: SW-620 colon
CAKI-1 renal = tested on: CAKI-1 renal
HCT-15 colon = tested on: HCT-15 colon
ACHN renal = tested on: ACHN renal
OVCAR-3 ovarian = tested on: OVCAR-3 ovarian
OVCAR-4 ovarian = tested on: OVCAR-4 ovarian
SK-MEL-2 melanoma = tested on: SK-MEL-2 melanoma
HOP-92 NSCLC = tested on: HOP-92 NSCLC

SMILES: N#Cc1c(Br)n(C2OC(CO)C(O)C2O)c2ncn3ccnc3c12 (stereo unspecified)
- GI50 (MDA-MB-435): > 100 µM
- TGI (MDA-MB-435): > 100 µM
- GI50 (HL-60(TB) leukemia): > 100 µM
- TGI (HL-60(TB) leukemia): > 100 µM
- GI50 (MDA-MB-231 breast): > 100 µM
- TGI (MDA-MB-231 breast): > 100 µM
- GI50 (A549 NSCLC): > 100 µM
- TGI (A549 NSCLC): > 100 µM
- GI50 (DU-145 prostate): 69.5 µM
- TGI (DU-145 prostate): > 100 µM
- GI50 (U251 CNS): > 100 µM
- TGI (U251 CNS): > 100 µM
- GI50 (SNB-75 CNS): > 100 µM
- TGI (SNB-75 CNS): > 100 µM
- GI50 (HOP-62 NSCLC): > 100 µM
- TGI (HOP-62 NSCLC): > 100 µM
- GI50 (IGROV1 ovarian): 81.9 µM
- TGI (IGROV1 ovarian): > 100 µM
- GI50 (NCI-H226 lung): 40.6 µM
- TGI (NCI-H226 lung): > 100 µM
- GI50 (UACC-257 melanoma): > 100 µM
- TGI (UACC-257 melanoma): > 100 µM
- GI50 (NCI/ADR-RES ovarian): > 100 µM
- TGI (NCI/ADR-RES ovarian): > 100 µM
- GI50 (T-47D breast): > 100 µM
- TGI (T-47D breast): > 100 µM
- GI50 (MCF7 breast): > 100 µM
- TGI (MCF7 breast): > 100 µM
- GI50 (K-562 leukemia): 62.4 µM
- TGI (K-562 leukemia): > 100 µM
- GI50 (SK-MEL-5 melanoma): 64 µM
- TGI (SK-MEL-5 melanoma): > 100 µM
- GI50 (A498 renal): 19.9 µM
- TGI (A498 renal): > 100 µM
- GI50 (SK-OV-3 ovarian): > 100 µM
- TGI (SK-OV-3 ovarian): > 100 µM
- GI50 (HT29 colon): 65.3 µM
- TGI (HT29 colon): > 100 µM
- GI50 (LOX IMVI melanoma): 60.1 µM
- TGI (LOX IMVI melanoma): > 100 µM
- GI50 (SF-295 CNS): > 100 µM
- TGI (SF-295 CNS): > 100 µM
- GI50 (NCI-H23 lung): > 100 µM
- TGI (NCI-H23 lung): > 100 µM
- GI50 (MOLT-4 leukemia): 41.9 µM
- TGI (MOLT-4 leukemia): > 100 µM
- GI50 (CCRF-CEM leukemia): > 100 µM
- TGI (CCRF-CEM leukemia): > 100 µM
- GI50 (786-0 renal): > 100 µM
- TGI (786-0 renal): > 100 µM
- GI50 (UO-31 renal): 53.6 µM
- TGI (UO-31 renal): > 100 µM
- GI50 (SN12C renal): > 100 µM
- TGI (SN12C renal): > 100 µM
- GI50 (HCT-116 colon): 46.8 µM
- TGI (HCT-116 colon): > 100 µM
- GI50 (KM12 colon): > 100 µM
- TGI (KM12 colon): > 100 µM
- GI50 (HCC-2998 colon): > 100 µM
- TGI (HCC-2998 colon): > 100 µM
- GI50 (RPMI-8226 leukemia): > 100 µM
- TGI (RPMI-8226 leukemia): > 100 µM
- GI50 (SF-539 CNS): > 100 µM
- TGI (SF-539 CNS): > 100 µM
- GI50 (SR leukemia): 50.7 µM
- TGI (SR leukemia): > 100 µM
- GI50 (NCI-H460 lung): 40.7 µM
- TGI (NCI-H460 lung): > 100 µM
- GI50 (OVCAR-8 ovarian): 52.3 µM
- TGI (OVCAR-8 ovarian): > 100 µM
- GI50 (COLO 205 colon): 55.1 µM
- TGI (COLO 205 colon): > 100 µM
- GI50 (UACC-62 melanoma): > 100 µM
- TGI (UACC-62 melanoma): > 100 µM
- GI50 (PC-3 prostate): 63.8 µM
- TGI (PC-3 prostate): > 100 µM
- GI50 (TK-10 renal): > 100 µM
- TGI (TK-10 renal): > 100 µM
- GI50 (OVCAR-5 ovarian): > 100 µM
- TGI (OVCAR-5 ovarian): > 100 µM
- GI50 (NCI-H522 lung): > 100 µM
- TGI (NCI-H522 lung): > 100 µM
- GI50 (BT-549 breast): > 100 µM
- TGI (BT-549 breast): > 100 µM
- GI50 (HS 578T breast): > 100 µM
- TGI (HS 578T breast): > 100 µM
- GI50 (SNB-19 CNS): > 100 µM
- TGI (SNB-19 CNS): > 100 µM
- GI50 (MALME-3M melanoma): > 100 µM
- TGI (MALME-3M melanoma): > 100 µM
- GI50 (EKVX NSCLC): > 100 µM
- TGI (EKVX NSCLC): > 100 µM
- GI50 (SK-MEL-28 melanoma): > 100 µM
- TGI (SK-MEL-28 melanoma): > 100 µM
- GI50 (SF-268 CNS): 58 µM
- TGI (SF-268 CNS): > 100 µM
- GI50 (RXF 393 renal): 86.7 µM
- TGI (RXF 393 renal): > 100 µM
- GI50 (M14 melanoma): > 100 µM
- TGI (M14 melanoma): > 100 µM
- GI50 (SW-620 colon): 44.1 µM
- TGI (SW-620 colon): > 100 µM
- GI50 (CAKI-1 renal): > 100 µM
- TGI (CAKI-1 renal): > 100 µM
- GI50 (HCT-15 colon): > 100 µM
- TGI (HCT-15 colon): > 100 µM
- GI50 (ACHN renal): 57.6 µM
- TGI (ACHN renal): > 100 µM
- GI50 (OVCAR-3 ovarian): > 100 µM
- TGI (OVCAR-3 ovarian): > 100 µM

SMILES: COc1nc(Cl)nc(Cl)c1Cl (tested in a mixture with another compound)
- TGI (MDA-MB-435): > 36.3 µM
- TGI (MDA-MB-231 breast): > 39.1 µM
- TGI (A549 NSCLC): > 66 µM
- TGI (DU-145 prostate): 15.5 µM
- TGI (U251 CNS): 23 µM
- TGI (OVCAR-4 ovarian): 14.1 µM
- TGI (SNB-75 CNS): > 61.4 µM
- TGI (SK-MEL-2 melanoma): 22.6 µM
- TGI (HOP-62 NSCLC): 10.3 µM
- TGI (IGROV1 ovarian): 26.2 µM
- TGI (NCI-H226 lung): 77 µM
- TGI (UACC-257 melanoma): 12 µM
- TGI (NCI/ADR-RES ovarian): > 27.7 µM
- TGI (T-47D breast): 44.4 µM
- TGI (MCF7 breast): 24.2 µM
- TGI (K-562 leukemia): 23.8 µM
- TGI (SK-MEL-5 melanoma): 31.5 µM
- TGI (A498 renal): 37.4 µM
- TGI (SK-OV-3 ovarian): 32.7 µM
- TGI (HT29 colon): 17.9 µM
- TGI (LOX IMVI melanoma): 12.8 µM
- TGI (HOP-92 NSCLC): 14.9 µM
- TGI (SF-295 CNS): 36.3 µM
- TGI (NCI-H23 lung): 20.8 µM
- TGI (MOLT-4 leukemia): 10.1 µM
- TGI (CCRF-CEM leukemia): 12.1 µM
- TGI (786-0 renal): > 46.7 µM
- TGI (UO-31 renal): 1.94 µM
- TGI (SN12C renal): 51.6 µM
- TGI (HCT-116 colon): 19.5 µM
- TGI (HCC-2998 colon): 0.672 µM
- TGI (RPMI-8226 leukemia): 5.61 µM
- TGI (SF-539 CNS): 21.6 µM
- TGI (SR leukemia): 4.65 µM
- TGI (NCI-H460 lung): 12.1 µM
- TGI (OVCAR-8 ovarian): > 30.8 µM
- TGI (COLO 205 colon): 26.8 µM
- TGI (UACC-62 melanoma): 28.6 µM
- TGI (PC-3 prostate): 26 µM
- TGI (TK-10 renal): 19 µM
- TGI (OVCAR-5 ovarian): 49.9 µM
- TGI (NCI-H522 lung): 1.55 µM
- TGI (BT-549 breast): 22.5 µM
- TGI (HS 578T breast): > 100 µM
- TGI (SNB-19 CNS): 18.5 µM
- TGI (MALME-3M melanoma): 47.3 µM
- TGI (EKVX NSCLC): 1.4 µM
- TGI (SK-MEL-28 melanoma): 62.9 µM
- TGI (SF-268 CNS): > 31.7 µM
- TGI (RXF 393 renal): 31.7 µM
- TGI (M14 melanoma): 27.6 µM
- TGI (SW-620 colon): 20.8 µM
- TGI (CAKI-1 renal): 0.194 µM
- TGI (HCT-15 colon): 18.7 µM
- TGI (ACHN renal): 17.6 µM
- TGI (OVCAR-3 ovarian): 12.4 µM

Reference: PubChem BioAssay (NCI)
